Laboratory results: the supplement of paper PMC10307832

What was measured:
Assay in all cases: relative viability (nuclei count vs DMSO), 5 days (fraction); higher = more cells survive
[1] = compound: CN(C)C[C@@H]1CCn2cc(c3ccccc32)C2=C(C(=O)NC2=O)c2cn(c3ccccc23)CCO1 [Ruboxistaurin] + CC(=O)c1c(C)c2cnc(Nc3ccc(N4CCNCC4)cn3)nc2n(C2CCCC2)c1=O [Palbociclib] (partner 0.5 µM)
Outline: (§1)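 Lung cancer cell lines, seeded in 1536-well plates, were treated the following day by pin tool with a single drug or with five library-drug doses (not always all listed) in √10 steps on top of a fixed anchor-drug dose. Cells were fixed and nuclei stained in one step after 5 days, and nuclei were counted. Relative viability is the nuclei count for treated wells divided by that for vehicle wells, reported as medians of duplicate plates.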

[2] = compound: CN(C)C[C@@H]1CCn2cc(c3ccccc32)C2=C(C(=O)NC2=O)c2cn(c3ccccc23)CCO1 [Ruboxistaurin] + CC(C)C[C@H](NC(=O)[C@H](Cc1ccccc1)NC(=O)c1cnccn1)B(O)O [Bortezomib] (partner 0.002 µM)
Outline: as §1

[3] = compound: CN(C)C[C@@H]1CCn2cc(c3ccccc32)C2=C(C(=O)NC2=O)c2cn(c3ccccc23)CCO1 [Ruboxistaurin] + CS(=O)(=O)CCNCc1ccc(-c2ccc3ncnc(Nc4ccc(OCc5cccc(F)c5)c(Cl)c4)c3c2)o1 [Lapatinib] (partner 2 µM)
Outline: as §1

[4] = compound: CN(C)C[C@@H]1CCn2cc(c3ccccc32)C2=C(C(=O)NC2=O)c2cn(c3ccccc23)CCO1 [Ruboxistaurin] + CS(=O)(=O)N1CCN(Cc2cc3nc(-c4cccc5[nH]ncc45)nc(N4CCOCC4)c3s2)CC1 [Pictilisib] (partner 1 µM)
Outline: as §1

[5] = compound: CN(C)C[C@@H]1CCn2cc(c3ccccc32)C2=C(C(=O)NC2=O)c2cn(c3ccccc23)CCO1 [Ruboxistaurin] + Nc1nc2[nH]cc(CCc3ccc(C(=O)N[C@@H](CCC(=O)O)C(=O)O)cc3)c2c(=O)[nH]1 [Pemetrexed] (partner 0.2 µM)
Outline: as §1

Row | Cell Line | relative viability ([1]; first compound 0.08 µM) | relative viability ([1]; first compound 0.8 µM) | relative viability ([1]; first compound 2.53 µM) | relative viability ([1]; first compound 8 µM) | relative viability ([2]; first compound 0.08 µM) | relative viability ([2]; first compound 0.8 µM) | relative viability ([2]; first compound 2.53 µM) | relative viability ([2]; first compound 8 µM) | relative viability ([3]; first compound 0.08 µM) | relative viability ([3]; first compound 0.8 µM) | relative viability ([3]; first compound 2.53 µM) | relative viability ([3]; first compound 8 µM) | relative viability ([4]; first compound 0.08 µM) | relative viability ([4]; first compound 0.8 µM) | relative viability ([4]; first compound 2.53 µM) | relative viability ([4]; first compound 8 µM) | relative viability ([5]; first compound 0.08 µM) | relative viability ([5]; first compound 0.8 µM) | relative viability ([5]; first compound 2.53 µM) | relative viability ([5]; first compound 8 µM)
1 | NCI-H647 | 0.473 | 0.395 | 0.432 | 0.415 | 1.21 | 0.817 | 0.869 | 1.3 | 1.06 | 0.97 | 1.08 | 0.815 | 0.53 | 0.37 | 0.417 | 0.258 | 0.173 | 0.222 | 0.196 | 0.161
2 | NCI-H650 | 0.339 | 0.337 | 0.377 | 0.383 | 0.816 | 0.698 | 0.927 | 0.915 | 1.22 | 0.764 | 1.38 | 0.491 | 1.15 | 0.831 | 0.848 | 0.808 | 0.995 | 0.948 | 0.981 | 0.817
3 | NCI-H661 | 0.424 | 0.416 | 0.437 | 0.46 | 0.887 | 0.664 | 0.883 | 0.88 | 0.593 | 0.451 | 0.639 | 0.623 | 0.463 | 0.499 | 0.493 | 0.422 | 0.932 | 0.873 | 0.921 | 0.874
4 | NCI-H838 | 0.234 | 0.19 | 0.215 | 0.213 | 0.876 | 0.772 | 1.09 | 0.618 | 1.07 | 0.813 | 0.929 | 0.875 | 0.468 | 0.376 | 0.371 | 0.383 | 0.248 | 0.222 | 0.222 | 0.225
5 | NCI-H1355 | 0.399 | 0.338 | 0.412 | 0.418 | 1.19 | 1.21 | 1.18 | 1.16 | 1.06 | 0.916 | 0.933 | 0.814 | 0.473 | 0.364 | 0.309 | 0.276 | 1.08 | 1 | 1.02 | 1.02
6 | NCI-H1437 | 0.337 | 0.302 | 0.303 | 0.308 | 0.64 | 0.461 | 0.526 | 0.516 | 0.934 | 0.675 | 0.751 | 0.819 | 0.488 | 0.388 | 0.383 | 0.305 | 0.309 | 0.299 | 0.315 | 0.313
7 | NCI-H1650 | 0.416 | 0.324 | 0.455 | 0.372 | 0.216 | 0.192 | 0.212 | 0.195 | 1.03 | 0.694 | 1.09 | 0.829 | 0.679 | 0.402 | 0.646 | 0.359 | 0.425 | 0.362 | 0.373 | 0.454
